The source of these data is PubChem BioAssay (NCI).

Structures are written as SMILES. “And” between values parts separate entries of the source, which are not always exact repeats. Identical values can stand only once.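 Each compound was tested at five concentrations against cells in 96-well plates for 48 hours. GI50 is the concentration that inhibits growth by half. Definition used: TGI = concentration required for complete inhibition of growth.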

The subject of this experiment is MDA-MB-468 breast. As to the kind of experiment: NCI tumour cell line growth inhibition, 48 h.
For the compound `CCCC(=O)Oc1ccc(/C(=C(\C)c2ccc(Cl)cc2)c2ccc(OCCN(CC)CC)cc2)cc1`, the GI50 was 1530 nM and the TGI amounted to 3.67 µM. The matching figures for `CN(C)Cc1ccc(NC(=O)c2cncc(C#Cc3cnc(N)c4ncccc34)c2)cc1C(F)(F)F`: 1560 nM and 3.21 µM.

As for `Nc1[nH]nc(Nc2ccccc2)c1-c1nc2ccccc2s1`, the GI50 is 2230 nM and the TGI was 5.98 µM. For the compound `NC(CSC(c1ccccc1)(c1ccccc1)c1ccccc1)C(=O)O` (stereo not given), the GI50 was 406 nM and the TGI was 6.24 µM.

Turning to `O=C(CSSCC(=O)c1ccc(Cl)cc1)c1ccc(Cl)cc1`, the GI50 is 2260 nM and the TGI came to 5.98 µM.

Consider `Cc1cccc(CNc2c3ccccc3nc3ccccc23)c1`, for which the GI50 is 1580 nM and the TGI was determined as 3.63 µM. The matching figures for `COc1ccc(Cn2cc3c(c2-c2ccccc2)CCc2cnoc2-3)cc1`: 79.5 nM and greater than 100 µM. Take `CCN1C(=O)N(CC)C2C1NN=c1s/c(=C3\C(=O)Nc4ccccc43)c(=O)n12` (stereo not given): the GI50 was 297 nM and the TGI was 2.82 µM. For `COc1ccc(-c2nc(NC(=O)CS(=O)(=O)c3ccc(F)cc3)sc2C)cc1`, the GI50 was 7050 nM and the TGI was determined as 53.8 µM. As to `CN[C@@H](C)C(=O)N[C@H](C(=O)N1CCC[C@H]1c1nc(C(=O)c2ccc(F)cc2)cs1)C1CCCCC1`, the GI50 was 591 nM and the TGI worked out at 20.3 µM. Regarding `Cc1cccc(N2CCN(C3=C(Cl)C(=O)c4ncccc4C3=O)CC2)c1`, the GI50 is 1540 nM and the TGI is 3.08 µM. The matching figures for `O=C1/C(=C/c2ccc(F)cc2)COc2ccc(O)c(O)c21`: 2280 nM and 5.6 µM. The matching figures for `CNC(=O)c1c(NC(=O)c2ccccc2C(F)(F)F)sc2c1CCC(=O)C2`: 1810 nM and 5.36 µM. On to `COc1ccc(/C=C\c2cc(OC)c(OC)c(OC)c2)cc1NC(=O)/C=C/c1ccc(OC)c(OC)c1`, for which the GI50 is 1900 nM and the TGI is greater than 100 µM. The matching figures for `CN1CCN(C2=C(Cl)C(=O)c3ccccc3C2=O)CC1`: 1110 nM and 2.61 µM.

On to `CC(=O)CC[N+](C)(C)C`, for which the GI50 was 1750 nM and the TGI was 4.39 µM. The like results for `CN(C)S(=O)(=O)c1cccc(C(=O)Nc2nc(-c3ccc(F)c(F)c3)cs2)c1` were, in that order, 3790 nM and 97.5 µM. The like results for `O=C1c2c(c3c4cc(F)ccc4oc3c3[nH]c4ccccc4c23)C(=O)N1O` were, in that order, 2140 nM and 7.93 µM. As for `COC(=O)CNC(=O)C(=O)c1c(O)c(O)c(C(C)C)c2cc(C)c(-c3c(C)cc4c(C(C)C)c(O)c(O)c(C(=O)C(=O)NCC(=O)OC)c4c3O)c(O)c12`, the GI50 was 1460 nM and the TGI came to 4.8 µM.

As for `O=[N+]([O-])c1ccc(Sc2cccc[n+]2[O-])c2nonc12`, the GI50 is 5780 nM and the TGI is 20.7 µM.

Regarding `O=[N+]([O-])c1ccccc1/C=N\NC(=S)N/N=C/c1ccccc1[N+](=O)[O-]`, the GI50 was 1400 nM and the TGI was determined as 21.3 µM. For the compound `O=C(O)CCCN1C(=O)/C(=C/C(Cl)=C/c2ccccc2)SC1=S`, the GI50 is 1180 nM and the TGI was 3.29 µM. The like results for `C[C@H]1C[C@@H](n2c(Nc3ccc(OC(F)(F)F)cc3)nc3cc(CCC(=O)O)ccc32)CC(C)(C)C1` were, in that order, 15700 nM and 38.6 µM.

For the compound `O=C(CSc1nc2ccccc2c(=O)n1-c1ccc(Cl)cc1)N/N=C/c1ccc(Oc2ccc(Cl)cc2)cc1`, the GI50 was 2080 nM and the TGI was found to be 5.08 µM.

For the compound `COc1ccc(CCN2CCCn3c2nc2ccccc2c3=O)cc1`, the GI50 was 39.2 nM and the TGI stood at 43.9 µM. As for `O=C(CCN1CCCC1)Nc1ccc2c(Nc3ccc(F)cc3)c3ccccc3nc2c1`, the GI50 was 1260 nM and the TGI is 2.8 µM. With `COc1cc2c(O[C@@H]3OC[C@H](OC(C)=O)[C@H](OC(C)=O)[C@H]3O)c3c(c(-c4ccc5c(c4)OCO5)c2cc1OC)C(=O)OC3`, the GI50 was 731 nM and the TGI is greater than 10 µM. With `CCN(Cc1ccc(Cl)c(Cl)c1)c1ccc2nc(N)nc(N)c2c1C`, the GI50 was 13.8 nM and the TGI amounted to 1.3 µM. The matching figures for `Cc1ccc(S(=O)(=O)c2nc(-c3ccc(F)cc3)oc2S(C)(=O)=O)cc1`: 2500 nM and greater than 19.8 µM. The like results for `Cc1cc(NC(=O)NCCOc2ccc(N3C(N)=NC(N)=NC3(C)C)cc2Cl)ccc1S(=O)(=O)F` were, in that order, 1460 nM and 27.6 µM. `COc1ccc(-n2nc(C)c3c(Nc4ccc(NC(=O)Nc5cccc(C(F)(F)F)c5)cc4)ncnc32)cc1`: the GI50 was 2020 nM and the TGI was 4.9 µM.

As for `Nc1c(C(=O)c2cccc(-c3cccnc3)c2)cnn1-c1ccc(F)cc1`, the GI50 is greater than 25000 nM and the TGI was greater than 25 µM. For the compound `CCc1nc(N)nc(N)c1C#CC(C)c1ccc(-c2ccncc2)cc1Cl` (stereo not given), the TGI was 1.57 µM and 6.46 µM.
